Results as given in patent publication US20160303095A1, “METHODS OF TREATING HEPATITIS B VIRUS” (Gilead Sciences, Inc., priority 2015, published 2016).

Experiments:
[1] = target: T1, KDM2A (Homo sapiens, UniProt Q9Y2K7); assay: Biochemical KDM inhibition assay (LANCE), KDM2A; conditions: read-out: Biochemical IC50 KDM 2A
T1 construct: host or cells: Sf9 cells
T1 sequence (Q9Y2K7 1-1162): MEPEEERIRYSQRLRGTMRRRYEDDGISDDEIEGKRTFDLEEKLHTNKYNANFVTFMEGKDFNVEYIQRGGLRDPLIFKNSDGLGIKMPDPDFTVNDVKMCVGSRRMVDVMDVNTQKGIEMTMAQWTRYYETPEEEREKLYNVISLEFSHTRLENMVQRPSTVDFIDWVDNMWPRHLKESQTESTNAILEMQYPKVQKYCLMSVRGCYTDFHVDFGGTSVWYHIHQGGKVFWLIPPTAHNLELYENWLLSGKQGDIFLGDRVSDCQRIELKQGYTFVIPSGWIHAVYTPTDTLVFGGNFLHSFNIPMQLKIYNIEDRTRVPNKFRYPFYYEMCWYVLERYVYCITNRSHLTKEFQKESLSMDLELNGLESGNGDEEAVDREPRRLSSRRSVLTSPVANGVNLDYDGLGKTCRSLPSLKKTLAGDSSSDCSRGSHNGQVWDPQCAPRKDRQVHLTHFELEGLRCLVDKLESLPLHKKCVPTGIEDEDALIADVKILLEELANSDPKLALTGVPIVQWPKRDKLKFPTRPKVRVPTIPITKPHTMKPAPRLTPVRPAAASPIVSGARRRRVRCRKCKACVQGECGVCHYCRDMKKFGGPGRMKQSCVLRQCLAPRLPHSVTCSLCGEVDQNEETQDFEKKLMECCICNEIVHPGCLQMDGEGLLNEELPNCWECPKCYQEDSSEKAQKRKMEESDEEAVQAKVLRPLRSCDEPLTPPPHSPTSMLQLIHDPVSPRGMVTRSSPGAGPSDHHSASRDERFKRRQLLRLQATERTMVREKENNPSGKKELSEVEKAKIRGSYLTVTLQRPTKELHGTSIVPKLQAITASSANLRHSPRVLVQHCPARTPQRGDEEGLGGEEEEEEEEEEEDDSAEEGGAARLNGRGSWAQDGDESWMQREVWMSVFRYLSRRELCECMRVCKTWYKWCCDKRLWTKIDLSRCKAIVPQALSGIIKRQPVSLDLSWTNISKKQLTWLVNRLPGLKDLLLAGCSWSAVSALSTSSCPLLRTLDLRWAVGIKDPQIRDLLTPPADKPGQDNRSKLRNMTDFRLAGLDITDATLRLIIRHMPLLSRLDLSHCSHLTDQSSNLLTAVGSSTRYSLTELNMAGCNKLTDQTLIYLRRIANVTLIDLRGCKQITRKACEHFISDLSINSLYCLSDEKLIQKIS
Protocol: (§1) Representative compounds were characterized for their inhibition of KDM5 using biotinylated histone substrates. Inhibition was measured in vitro (CEREP Poitier, Le Bois l'Evêque, France) following experimental conditions described in Table 2. Briefly, the test compound, reference compound or water (control) was mixed with about 2-20 ng of recombinant, Human enzymes expressed in Sf9 cells in a buffer containing 45 mM Hepes/Tris (pH 7), 5 μM FAS, 100 μM ascorbic acid, 10 μM 2-oxoglutarate, 0.01% Tween 20 and 0.01% BSA. Thereafter, the reaction was initiated by adding the biotin-labeled substrate, and the mixture was incubated for 10-30 min at room temperature. For basal control measurements, the enzyme was omitted from the reaction mixture. Following incubation the reaction was stopped by adding 1 mM EDTA. After 5 min, the anti-methyl histone antibody labeled with europium chelate and the Ulight streptavidine (Perkin Elmer Waltham, Mass.) were added. After 60 min more, the fluorescence transfer was measured at λex=320 nm and λem=620 and λem=665 nm using a microplate reader (Envision, Perkin Elmer) (LANCE). The enzyme activity was determined by dividing the signal measured at λem=665 nm by that measured at 620 nm (ratio).

[2] = Alamar Blue cell viability assay; assay type: cell-based; conditions: human; D 28; PHH donor 8181; virus 21p
[3] = target: T2, KDM6B (Homo sapiens, UniProt O15054); assay: Biochemical KDM inhibition assay (LANCE), KDM6B; conditions: read-out: Biochemical IC50 KDM 6B
T2 construct: host or cells: Sf9 cells
T2 sequence (O15054 whole entry): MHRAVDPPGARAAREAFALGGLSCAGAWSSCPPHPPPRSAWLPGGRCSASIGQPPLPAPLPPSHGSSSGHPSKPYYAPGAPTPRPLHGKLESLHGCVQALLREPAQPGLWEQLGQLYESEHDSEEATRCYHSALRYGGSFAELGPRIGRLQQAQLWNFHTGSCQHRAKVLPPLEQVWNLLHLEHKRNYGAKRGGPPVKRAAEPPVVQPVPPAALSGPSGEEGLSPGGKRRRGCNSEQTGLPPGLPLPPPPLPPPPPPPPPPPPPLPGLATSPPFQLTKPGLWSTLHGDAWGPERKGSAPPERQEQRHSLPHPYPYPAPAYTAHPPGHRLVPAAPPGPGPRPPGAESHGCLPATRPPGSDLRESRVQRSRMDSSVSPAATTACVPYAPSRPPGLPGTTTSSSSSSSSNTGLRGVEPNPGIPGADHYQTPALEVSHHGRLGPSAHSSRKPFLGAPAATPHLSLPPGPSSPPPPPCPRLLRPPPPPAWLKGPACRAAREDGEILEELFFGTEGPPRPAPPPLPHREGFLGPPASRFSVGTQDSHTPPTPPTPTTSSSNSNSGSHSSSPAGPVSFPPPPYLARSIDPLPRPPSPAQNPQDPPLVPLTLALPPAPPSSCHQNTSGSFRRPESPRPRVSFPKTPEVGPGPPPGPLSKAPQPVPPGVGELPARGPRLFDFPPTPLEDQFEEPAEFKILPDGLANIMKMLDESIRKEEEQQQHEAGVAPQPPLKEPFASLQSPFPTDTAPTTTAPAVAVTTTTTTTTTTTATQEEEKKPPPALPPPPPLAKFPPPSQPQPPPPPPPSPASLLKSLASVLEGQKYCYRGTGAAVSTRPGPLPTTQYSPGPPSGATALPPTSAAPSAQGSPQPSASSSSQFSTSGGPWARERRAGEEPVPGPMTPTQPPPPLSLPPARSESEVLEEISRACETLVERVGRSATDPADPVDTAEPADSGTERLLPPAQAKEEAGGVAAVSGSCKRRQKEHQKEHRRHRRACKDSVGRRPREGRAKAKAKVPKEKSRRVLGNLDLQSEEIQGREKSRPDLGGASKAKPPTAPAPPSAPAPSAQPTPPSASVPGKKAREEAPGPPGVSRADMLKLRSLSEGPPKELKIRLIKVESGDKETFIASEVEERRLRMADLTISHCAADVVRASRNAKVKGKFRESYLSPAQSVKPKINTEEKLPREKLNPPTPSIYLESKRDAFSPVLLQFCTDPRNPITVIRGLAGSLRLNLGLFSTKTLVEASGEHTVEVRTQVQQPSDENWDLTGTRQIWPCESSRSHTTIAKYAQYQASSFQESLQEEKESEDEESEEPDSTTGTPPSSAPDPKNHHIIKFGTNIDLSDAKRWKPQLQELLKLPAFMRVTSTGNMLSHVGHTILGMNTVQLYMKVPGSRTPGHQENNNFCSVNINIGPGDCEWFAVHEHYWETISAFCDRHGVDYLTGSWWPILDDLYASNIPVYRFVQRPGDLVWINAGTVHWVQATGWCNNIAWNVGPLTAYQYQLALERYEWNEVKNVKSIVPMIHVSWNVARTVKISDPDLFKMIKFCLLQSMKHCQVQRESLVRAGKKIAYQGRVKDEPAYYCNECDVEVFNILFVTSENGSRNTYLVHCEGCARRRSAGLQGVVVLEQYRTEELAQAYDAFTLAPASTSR
Protocol: as §1

[4] = target: T3, KDM6A (Homo sapiens, UniProt O15550); assay: Biochemical KDM inhibition assay (LANCE), KDM6A; conditions: read-out: Biochemical IC50 KDM 6A
T3 construct: host or cells: Sf9 cells
T3 sequence (O15550 whole entry): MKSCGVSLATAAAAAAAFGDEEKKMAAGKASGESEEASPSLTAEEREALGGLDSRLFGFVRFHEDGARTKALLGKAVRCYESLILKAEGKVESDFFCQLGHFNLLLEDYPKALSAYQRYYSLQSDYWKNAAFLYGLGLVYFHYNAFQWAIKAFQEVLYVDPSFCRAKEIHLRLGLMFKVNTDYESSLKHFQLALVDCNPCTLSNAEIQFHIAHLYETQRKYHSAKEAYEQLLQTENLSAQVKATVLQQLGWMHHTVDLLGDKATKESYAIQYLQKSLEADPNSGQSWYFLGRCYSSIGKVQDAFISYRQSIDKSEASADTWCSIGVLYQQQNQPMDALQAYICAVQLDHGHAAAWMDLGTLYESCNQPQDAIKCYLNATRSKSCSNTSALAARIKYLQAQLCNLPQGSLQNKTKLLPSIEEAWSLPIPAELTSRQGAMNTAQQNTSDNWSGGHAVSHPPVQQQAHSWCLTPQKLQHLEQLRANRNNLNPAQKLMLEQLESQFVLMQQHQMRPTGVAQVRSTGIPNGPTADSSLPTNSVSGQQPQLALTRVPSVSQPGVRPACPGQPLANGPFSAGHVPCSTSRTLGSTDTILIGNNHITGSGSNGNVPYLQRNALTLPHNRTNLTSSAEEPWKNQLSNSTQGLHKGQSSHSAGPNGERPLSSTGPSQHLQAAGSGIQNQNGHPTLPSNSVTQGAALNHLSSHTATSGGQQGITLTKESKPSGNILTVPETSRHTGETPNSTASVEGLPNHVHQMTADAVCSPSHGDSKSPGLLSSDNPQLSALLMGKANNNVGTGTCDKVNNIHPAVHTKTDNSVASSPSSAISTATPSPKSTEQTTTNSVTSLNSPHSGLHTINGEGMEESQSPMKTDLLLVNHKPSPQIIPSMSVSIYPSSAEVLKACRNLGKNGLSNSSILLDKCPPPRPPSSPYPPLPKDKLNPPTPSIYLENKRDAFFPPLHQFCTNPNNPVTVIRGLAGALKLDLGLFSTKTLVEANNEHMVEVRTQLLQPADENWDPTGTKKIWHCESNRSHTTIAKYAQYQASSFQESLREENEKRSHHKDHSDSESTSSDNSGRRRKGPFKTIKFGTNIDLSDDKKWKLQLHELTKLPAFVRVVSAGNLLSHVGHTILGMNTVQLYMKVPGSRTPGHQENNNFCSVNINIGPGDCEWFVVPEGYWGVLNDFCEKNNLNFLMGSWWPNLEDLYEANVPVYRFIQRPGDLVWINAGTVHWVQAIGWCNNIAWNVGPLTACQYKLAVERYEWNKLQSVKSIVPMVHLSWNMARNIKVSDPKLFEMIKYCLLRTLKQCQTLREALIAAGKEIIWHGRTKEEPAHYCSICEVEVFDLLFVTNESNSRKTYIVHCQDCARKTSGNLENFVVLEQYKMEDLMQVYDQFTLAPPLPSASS
Protocol: as §1

Row | Compound | IC50 [1] [nM] | CC50 at 28 day [2] [nM] | IC50 [3] [nM] | IC50 [4] [nM]
1 | CCN(CCN(C)C)C(=O)CNCc1cc(C(=O)O)ccn1 [Example 9] | 650 | > 100000 | 4100 | 1300
2 | Cc1cc(Cl)ccc1COc1ccnn1-c1cc(C(=O)O)ccn1 [Example 11] | 450 | – | 280 | 74
3 | CCOC(=O)c1ccnc(CNCC(=O)N(CC)CCN(C)C)c1 [Example 8] | – | 20000 | – | –
4 | O=C(O)c1ccncc1Nc1nn(CCN2CCC(F)(F)CC2)c2ccc(F)cc12 [Example 13] | 510 | – | 400 | 140
5 | Nc1c(C(=O)O)ccnc1C(=O)O [Example 7, reference compound] | 360 | > 50000 | 7800 | 930
6 | CCN(CC)CCCCNCc1cc(C(=O)O)ccn1 [Example 18] | 2000 | – | 27000 | 5500
